Experimental data as given in ChEMBL document CHEMBL1158471, “Flaviviral protease inhibitors identified by fragment-based library docking into a structure generated by molecular dynamics” (J Med Chem, 2009).
Where a SMILES comes first, the peptide text is derived from it. [ ]: non-standard residue; d: D form. The star is where a group is joined. Nle = CCCC[C@H](N)C(=O)O; Bz = O=C(c1ccccc1)*

Assays:
[1] = target: T1, Genome polyprotein (West Nile virus, UniProt P06935); test: Inhibition of WNV NS2B-NS3 protease
[2] = target: T1, Genome polyprotein; test: Binding affinity to WNV NS2B-NS3 protease measured as change of 1H chemical shift of Thr52 and Glu101 by NMR spectroscopy
[3] = target: T1, Genome polyprotein; test: Inhibition of WNV NS2B-NS3 protease by enzymatic assay
[4] = target: T1, Genome polyprotein; test: Inhibition of WNV NS2B-NS3 protease by tryptophan fluorescence assay
[5] = target: T1, Genome polyprotein; test: Binding affinity to WNV NS2B(K96A)-NS3 protease measured as change of 15N chemical shift of Ser137 by NMR spectroscopy
[6] = target: T1, Genome polyprotein; test: Binding affinity to WNV NS2B(K96A)-NS3 protease measured as change of 1H chemical shift of Glu101 by NMR spectroscopy
[7] = target: T1, Genome polyprotein; test: Binding affinity to WNV NS2B(K96A)-NS3 protease measured as change of 15N chemical shift of Val100 by NMR spectroscopy
[8] = target: T1, Genome polyprotein; test: Binding affinity to WNV NS2B(K96A)-NS3 protease measured as change of 15N chemical shift of Ala36 by NMR spectroscopy

How did the Ki [1] turn out when `Cc1ccc(C(NN=C(N)N)[PH](=O)O)cc1` (stereo not given) was run?
The Ki was 13 µM.

With `NC(N)=N/N=C\c1ccc(/C=N\N=C(N)N)cc1` as the compound, how does the Ki [1] read?
Its Ki is 35 µM.

`Cc1cc(CSC(=N)N)c(C)cc1CSC(=N)N` was tested. Which Kd [2] did it give?
Its Kd is 40 µM.

For `CC1CNC(c2ccc(Nc3nnc(Nc4ccc(C5=NC(C)CN5)cc4)c4ccccc34)cc2)=N1` (stereo not given), which IC50 [1] is on record?
The IC50 was 24.5 µM.

What does the source list for `N=C(N)Nc1ccc(C(=O)Oc2ccc([N+](=O)[O-])cc2)cc1`?
IC50 [3]: 34.2 µM; Kd [4]: 16 µM

With `c1ccc2c(Nc3ccc4c(c3)CNCC4)nnc(Nc3ccc(C4=NCCN4)cc3)c2c1` as the compound, how does the IC50 [1] read?
Its IC50 is 5.2 µM.

Which IC50 [1] does the source give for `NCc1ccc(Nc2nnc(Nc3ccc(C4=NCCN4)cc3)c3ccccc23)cc1` here?
The IC50 was 10.6 µM.

How did the IC50 [1] turn out when `CCCC[C@H](NC(=O)c1ccccc1)C(=O)N[C@@H](CCCCN)C(=O)N[C@@H](CCCNC(=N)N)C(=O)N[C@H](C=O)CCCNC(=N)N` (Bz-[Nle]KRR-aldehyde) was run?
Its IC50 is 4.1 µM.

For `N=C(N)c1cccc(NC(=O)Nc2cccc(C(=N)N)c2)c1` [AMICARBALIDE], which Kd [5] is on record?
The Kd was 90 µM.

What about the IC50 [3] of the same compound?
Its IC50 is 2.8 µM.

What about the Kd [6] of the same compound?
Its Kd is 70 µM.

What about the Kd [7] of the same compound?
The Kd was 90 µM.

What about the Kd [8] of the same compound?
Its Kd is 90 µM.

And the Kd [4]?
The Kd was 15 µM.
